The target of experiment [1] is T1, Cyclooxygenase-1 (cyclooxygenase from ram seminal vesicles) (Ovis aries, UniProt P05979).
T1 construct: cyclooxygenase from ram seminal vesicles; from tissue; host or cells: ram seminal vesicles
T1 sequence (P05979 25-600): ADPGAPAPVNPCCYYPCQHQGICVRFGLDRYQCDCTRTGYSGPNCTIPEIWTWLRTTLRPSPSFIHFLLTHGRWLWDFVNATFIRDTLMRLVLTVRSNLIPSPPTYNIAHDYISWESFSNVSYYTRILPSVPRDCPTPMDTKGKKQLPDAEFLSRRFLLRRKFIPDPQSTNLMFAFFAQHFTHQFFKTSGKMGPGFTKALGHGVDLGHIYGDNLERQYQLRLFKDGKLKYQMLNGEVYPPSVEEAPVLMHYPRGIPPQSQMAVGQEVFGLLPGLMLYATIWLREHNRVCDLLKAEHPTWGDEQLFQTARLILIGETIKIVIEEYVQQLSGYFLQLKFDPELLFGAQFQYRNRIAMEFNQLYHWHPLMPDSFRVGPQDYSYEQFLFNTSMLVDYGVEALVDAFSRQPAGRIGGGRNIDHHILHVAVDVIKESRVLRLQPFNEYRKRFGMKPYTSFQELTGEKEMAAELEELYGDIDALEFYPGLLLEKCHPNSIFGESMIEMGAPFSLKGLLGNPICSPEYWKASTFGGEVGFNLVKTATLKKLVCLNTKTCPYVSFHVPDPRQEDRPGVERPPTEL
The experiment in a line: Cyclooxygenase-1 screen (COX-1). Type of experiment: biochemical. The following applies: 300 μM. How it is done:
(§1) The compounds of the invention were screened for their anti-inflammatory activity using a series of in vitro tests the details of which are given below. The activity of various compounds against 5-lipoxygenase, cycloxygenase-1, cycloxygenase-2 and lipid peroxidase was evaluated. Results of the screening procedures are included in TABLE I, and the activity against 5-lipoxygenase at a test concentration of 1 μM in Table II.
Cyclooxygenase-1 is involved in the formation of prostaglandins and thromboxane via the oxidative metabolism of arachidonic acid. Briefly, cyclooxygenase from ram seminal vesicles is incubated with arachidonic acid (100 μm) for 2 minutes at 37° C. in the presence or absence of test compounds according to the methods of A. T. Evans et al., Biochem. Pharm. 36:2035-2037(1987) and R. Boopathy et al., Biochem J. 239:371-377 (1968). The assay is terminated by the addition of trichioroacetic acid and cyclooxygenase activity is determined by reading the absorbance at 530 nm. […]

Experiment [2] addresses T2, Cyclooxygenase-2 (prostaglandin H synthetase-2) from sheep placenta (Ovis aries, UniProt P79208).
T2 construct: cyclooxygenase-2 from sheep placenta; from tissue; host or cells: sheep placenta
T2 sequence (P79208 17-603): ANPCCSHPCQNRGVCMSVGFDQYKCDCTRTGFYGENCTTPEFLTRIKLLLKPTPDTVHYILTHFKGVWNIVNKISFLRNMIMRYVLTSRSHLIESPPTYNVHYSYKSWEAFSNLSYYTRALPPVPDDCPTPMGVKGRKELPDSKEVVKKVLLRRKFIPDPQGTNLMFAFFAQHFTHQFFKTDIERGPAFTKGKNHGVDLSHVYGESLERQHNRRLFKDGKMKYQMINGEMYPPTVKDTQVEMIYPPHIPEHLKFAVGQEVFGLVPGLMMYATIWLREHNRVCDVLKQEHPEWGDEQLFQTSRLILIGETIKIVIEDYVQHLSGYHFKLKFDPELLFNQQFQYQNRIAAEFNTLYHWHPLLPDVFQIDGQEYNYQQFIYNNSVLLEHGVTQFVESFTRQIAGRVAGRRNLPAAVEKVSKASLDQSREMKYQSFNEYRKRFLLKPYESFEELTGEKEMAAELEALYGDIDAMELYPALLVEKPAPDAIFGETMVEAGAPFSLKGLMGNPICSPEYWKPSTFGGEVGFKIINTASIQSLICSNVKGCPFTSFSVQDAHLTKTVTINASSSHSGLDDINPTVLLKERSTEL
The experiment in a line: Cyclooxygenase-2 screen (COX-2). Format: biochemical. The following applies: read-out: COX-2 percent inhibition. How it is done:
as §1
Cyclooxygenase-2, also known as prostaglandin H synthetase-2, catalyzes the rate- limiting step in the synthesis of inflammatory prostaglandins. In this reaction cyclooxygenase-2 catalyzes the oxygenation of unesterified precursors to form cyclic endoperoxide derivatives, including prostaglandin H. Briefly, cyclooxygenase-2 from sheep placenta, 14 μg/assay tube, is incubated with arachidonic acid (500 μM) for 1.5 minutes at 27° C. in the absence or presence of test compounds according to the methods of A. T. Evans, et al., Biochem Pharm. […] Res. Comm. […] Compounds are screened at 300 μM.

The target in experiment [3] is T3, 5-Lipoxygenase (crude enzyme preparation from rat basophilic leukemia cells, RBL-1) (Rattus norvegicus, UniProt P12527).
T3 construct: crude enzyme preparation from rat basophilic leukemia cells (RBL-1); endogenous in cells; host or cells: rat basophilic leukemia cells (RBL-1)
T3 sequence (P12527 1-673): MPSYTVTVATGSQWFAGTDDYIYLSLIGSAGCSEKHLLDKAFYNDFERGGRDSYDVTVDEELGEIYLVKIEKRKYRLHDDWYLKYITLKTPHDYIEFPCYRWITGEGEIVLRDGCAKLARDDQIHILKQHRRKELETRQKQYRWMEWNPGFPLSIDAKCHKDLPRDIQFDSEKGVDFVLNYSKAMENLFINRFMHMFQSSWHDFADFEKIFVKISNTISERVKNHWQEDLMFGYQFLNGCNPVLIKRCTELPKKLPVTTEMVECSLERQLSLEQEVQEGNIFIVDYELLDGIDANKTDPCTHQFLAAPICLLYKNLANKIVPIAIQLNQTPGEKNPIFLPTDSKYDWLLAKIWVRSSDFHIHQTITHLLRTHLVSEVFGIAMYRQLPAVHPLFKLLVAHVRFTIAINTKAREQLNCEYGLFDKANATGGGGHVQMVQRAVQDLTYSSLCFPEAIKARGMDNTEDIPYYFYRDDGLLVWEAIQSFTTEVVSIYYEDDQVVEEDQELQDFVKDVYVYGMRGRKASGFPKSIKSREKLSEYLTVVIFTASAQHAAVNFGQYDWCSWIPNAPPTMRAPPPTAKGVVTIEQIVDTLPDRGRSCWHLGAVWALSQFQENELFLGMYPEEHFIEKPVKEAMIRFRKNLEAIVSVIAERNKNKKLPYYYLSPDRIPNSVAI
The experiment in a line: 5-Lipoxygenase screen (5-LO), 5-HETE by RIA. The following applies: for inhibition at 30 µM: read-out: 5-LO percent inhibition; for inhibition at 1 µM: read-out: Percent inhibition of 5-LO, test conc. 1 μM (Table II). Format: biochemical. How it is done: as §1
5-Lipoxygenase catalyzes the oxidative metabolism of arachidonic acid to […] (5-HETE), the initial reaction leading to the formation of the leukotrienes. Briefly, the testing procedure utilizes a crude enzyme preparation from rat basophilic leukemia cells (RBL-1) according to the methods of T. Shimuzu et al. Pro. […] Test compounds are pre-incubated with the enzyme preparation for 5 minutes at room temperature and the reaction is initiated by the addition of arachidonic acid. Following an 8 minute incubation at room temperature, the reaction is terminated by the addition of citric acid and concentrations of 5-HETE are determined by RIA. Compounds are screened at 30 μM.

Experiment [4] concerns Lipid peroxidation (rat liver microsomes). The experiment in a line: Lipid peroxidation screen (LPO), CCl4-induced, liver microsomes. Type of experiment: biochemical. The following applies: 300 μM. How it is done: as §1
Lipid peroxidation is a consequence of various stimuli, including reactive free radicals. Polyunsaturated fatty acids associated with plasma membranes are degraded due to enzymatic induction by reactive agents such as CCl4, leading to cellular damage. Briefly, microsomes are prepared from rat livers and the protein concentration is determined according to the method of D. Mansuy et al., Biochem. Biophys. Res. Comm. 135:1015-1021(1986). A reaction mixture consisting of 2 mg of the microsomal preparation, an NADPH generating system, 20 mM CCl4 and test compound are incubated for 12 minutes at 37° C. The reaction is terminated by the addition of a mixture of thiobarbituric acid and trichloroacetic acid. The absorbance is read at 535 nm and is proportional to the concentration of malondialdehyde. Compounds are screened at 300 μM.
For orientation: Liver microsomes are a subcellular fraction often used to study metabolism.

Experiment [5] deals with Nuclear Factor-kappa B (NF-κB). Kind of experiment: NF-κB lacZ (κB-Z) reporter assay in transfected Jurkat cells stimulated with A23187 and PMA. The following applies: Homo sapiens; 10 μM; κB-Z Jurkat cells, A23187 and PMA (Table III); read-out: NF-κB percent inhibition. Type of experiment: cell-based, human. The method, then:
The human T lymphoid cell line Jurkat was transfected with a response element lacZ reporter in which transcription of the β-galactosidase gene is directed by the binding site for the NF-κB transcription factor. […] At the end of the incubation, the cells are spun down and resuspended in the buffer and FDG (fluorescein di-β-D-galactopyranoside) solution. The covered plates are further incubated in the dark for 16 hours at 25° C. […] Compounds were screened at 10 μM.
On the technique in general: In a reporter assay the amount or activity of a reporter protein is the signal.

A word on the inhibition: it is the drop in the measured response relative to a control, in per cent. With `O=C1OC(c2ccccc2)(c2ccccc2)C(O)=C1O` [Example 8, 3,4-Dihydroxy-5,5-diphenyl-2(5H)-furanone], the COX-1 percent inhibition in experiment [1] turned out to be 15%. The inhibition at 300 µM in experiment [2] worked out at 17%. In experiment [3], the inhibition at 30 µM came to 94% and the inhibition at 1 µM came out at 15%. Moreover, in experiment [4], the LPO percent inhibition came out at 70%. Moreover, the inhibition at 10 µM in experiment [5] is 33%.
Turning to `O=C1OC(c2ccccc2)(c2ccc(-c3ccccc3)cc2)C(O)=C1O` (stereo not drawn) [Example 7, 5-[(1,1'-Biphenyl)-4-yl]-3,4-dihydroxy-5-phenyl-2(5H)-furanone], the COX-1 percent inhibition in experiment [1] was found to be 52%. Further, the inhibition at 300 µM in experiment [2] was determined as 34%. For the same molecule, in experiment [3], the inhibition at 30 µM stood at 102% and the inhibition at 1 µM was 61%. The same molecule displayed an LPO percent inhibition in experiment [4] of 73%. Further, the inhibition at 10 µM in experiment [5] stood at 21%.
Take `CCCC1(c2ccc(-c3ccccc3)cc2)OC(=O)C(O)=C1O` (stereo not drawn) [Example 5, 5-[(1,1'-Biphenyl)-4-yl]-3,4-dihydroxy-5-propyl-2(5H)-furanone]: the COX-1 percent inhibition in experiment [1] is on record as 13%. Also, the inhibition at 300 µM in experiment [2] is 22%. Moreover, in experiment [3], the inhibition at 30 µM was 99% and the inhibition at 1 µM was 68%. In experiment [4], this molecule yielded an LPO percent inhibition of 70%. For the same molecule, in experiment [5], the inhibition at 10 µM is 68%.
The molecule `O=C1OC(CCSc2nc(-c3ccccc3)c(-c3ccccc3)o2)C(O)=C1O` (stereo not drawn) [Example 24, 3,4-Dihydroxy-5-[2-(4,5-diphenyl-1,3-oxazole-2-thio)ethyl]-2(5H)-furanone] gave a COX-1 percent inhibition in experiment [1] of 76%. The inhibition at 300 µM in experiment [2] was 68%. Also, in experiment [3], the inhibition at 30 µM came out at 113% and the inhibition at 1 µM is 71%. The molecule further registered an LPO percent inhibition in experiment [4] of 78%. Further, in experiment [5], the inhibition at 10 µM is 44%.
`C[C@@]1(c2ccc(-c3ccccc3)cc2)OC(=O)C(O)=C1O` [Example 11, (S)-(+)-5-[(1,1'-Biphenyl)-4-yl]-3,4-dihydroxy-5-methyl-2(5H)-furanone] gave a COX-1 percent inhibition in experiment [1] of 34%. Besides, in experiment [2], the inhibition at 300 µM is 10%. Also, in experiment [3], the inhibition at 30 µM came to 101% and the inhibition at 1 µM stood at 59%. In addition, in experiment [4], the LPO percent inhibition came out at 71%. Also, the inhibition at 10 µM in experiment [5] amounted to 72%.
`CC(C)CC1(c2ccc(-c3ccccc3)cc2)OC(=O)C(O)=C1O` (stereo not drawn) [Example 6, 5-[(1,1'-Biphenyl)-4-yl]-3,4-dihydroxy-5-(2-methylpropyl)-2(5H)-furanone] gave a COX-1 percent inhibition in experiment [1] of 67%. Besides, the inhibition at 300 µM in experiment [2] was determined as 46%. For the same molecule, in experiment [3], the inhibition at 30 µM was determined as 96% and the inhibition at 1 µM turned out to be 70%. In experiment [4], this molecule had an LPO percent inhibition of 82%. In experiment [5], the inhibition at 10 µM amounted to 59%.
For `CC(C)Cc1ccc([C@]2(C)OC(=O)C(O)=C2O)cc1` [Example 14, (S)-(+)-3,4-Dihydroxy-5-methyl-5-[4-(2-methylpropyl)phenyl]-2(5H)-furanone], the COX-1 percent inhibition in experiment [1] worked out at 12%. Also, in experiment [2], the inhibition at 300 µM is 18%. In experiment [3], the inhibition at 30 µM is 96% and the inhibition at 1 µM is 50%. Besides, the LPO percent inhibition in experiment [4] is listed as 66%. Besides, the inhibition at 10 µM in experiment [5] was determined as 60%.
Consider `CC(C)Cc1ccc(C2(c3ccccc3)OC(=O)C(O)=C2O)cc1` (stereo not drawn) [Example 10, 3,4-Dihydroxy-5-(4-isobutylphenyl)-5-phenyl-2(5H)-furanone], for which the COX-1 percent inhibition in experiment [1] was 43%. Besides, in experiment [2], the inhibition at 300 µM stood at 34%. For the same molecule, in experiment [3], the inhibition at 30 µM came to 106% and the inhibition at 1 µM amounted to 64%. The LPO percent inhibition in experiment [4] is 89%. Also, the inhibition at 10 µM in experiment [5] amounted to 16%.
On to `CCCC1(c2ccc(CC(C)C)cc2)OC(=O)C(O)=C1O` (stereo not drawn) [Example 9, 3,4-Dihydroxy-5-(4-isobutylphenyl)-5-(1-propyl)-2(5H)-furanone], for which the COX-1 percent inhibition in experiment [1] amounted to 25%. The inhibition at 300 µM in experiment [2] came out at 19%. Also, in experiment [3], the inhibition at 30 µM came out at 82% and the inhibition at 1 µM worked out at 40%. The same molecule returned an LPO percent inhibition in experiment [4] of 79%. In addition, the inhibition at 10 µM in experiment [5] was 26%.
In experiment [1], `CC1(c2ccc(-c3ccccc3)cc2)OC(=O)C(O)=C1O` (racemic) [Example 2, 5-[(1,1'-Biphenyl)-4-yl]-3,4-dihydroxy-5-methyl-2(5H)-furanone] gave a COX-1 percent inhibition of 33%. Further, the inhibition at 300 µM in experiment [2] is 22%. In addition, in experiment [3], the inhibition at 30 µM was 107% and the inhibition at 1 µM stood at 15%. The LPO percent inhibition in experiment [4] turned out to be 78%. Besides, the inhibition at 10 µM in experiment [5] is 90%.

These data come from US6262073A, “Pharmaceutical methods of use of 5-substituted and 5,5 disubstituted-3,4-dihydroxy-2(5H)-furanones” (Oxis International Inc., priority 2000, dated 2001).
